From PubChem BioAssay (NCI) come the findings set out here.

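A five-concentration, 48-hour dose response in 96-well plates underlies each endpoint, interpolated linearly between surrounding concentrations. TGI marks complete inhibition of growth.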

For one assay, the system named is KM20L2 colon. The assay can be described thus: inhibition of tumour cell growth, NCI panel, 48 h.
`O=C(CC(=O)c1cccc2ccccc12)C(=O)Nc1ccc(Cl)cc1` gave a TGI of over 100 µM.

`CCN(CC)CCSc1c2ccccc2nc2cc(NCC(=O)Nc3ccccc3-c3ccccc3NC(=O)CNc3ccc4c(SCCN(CC)CC)c5ccccc5nc4c3)ccc12` registered a TGI of over 100 µM.

Consider `Cc1ccc(S(=O)(=O)OC[C@@H]2CO2)cc1`, for which the TGI was over 100 µM.

Regarding `C=C(C)C(=O)OC1C/C(CO)=C\C(O)C/C(C)=C/C2OC(=O)C(=C)C21` (stereo not drawn), the TGI was 97.3 µM.

In a further assay the test system is SNB-75 CNS. The assay can be described thus: inhibition of tumour cell growth, NCI panel, 48 h.
As for `CCN(CC)CCSc1c2ccccc2nc2cc(NCC(=O)Nc3ccccc3-c3ccccc3NC(=O)CNc3ccc4c(SCCN(CC)CC)c5ccccc5nc4c3)ccc12`, the TGI was over 100 µM.

With `Cc1ccc(S(=O)(=O)OC[C@@H]2CO2)cc1`, the TGI is over 100 µM.

Consider `C=C(C)C(=O)OC1C/C(CO)=C\C(O)C/C(C)=C/C2OC(=O)C(=C)C21` (stereo not drawn), for which the TGI was over 100 µM.

Another assay concerns SK-OV-3 ovarian. The assay can be described thus: inhibition of tumour cell growth, NCI panel, 48 h.
On to `O=C(CC(=O)c1cccc2ccccc12)C(=O)Nc1ccc(Cl)cc1`, for which the TGI was over 100 µM.

With `CCN(CC)CCSc1c2ccccc2nc2cc(NCC(=O)Nc3ccccc3-c3ccccc3NC(=O)CNc3ccc4c(SCCN(CC)CC)c5ccccc5nc4c3)ccc12`, the TGI was over 100 µM.

The compound `C=C(C)C(=O)OC1C/C(CO)=C\C(O)C/C(C)=C/C2OC(=O)C(=C)C21` (stereo not drawn) gave a TGI of over 100 µM.

In the next assay the test system is K-562 leukemia. The assay can be described thus: inhibition of tumour cell growth, NCI panel, 48 h.
In turn, `O=C(CC(=O)c1cccc2ccccc12)C(=O)Nc1ccc(Cl)cc1` had a TGI of over 100 µM.

Regarding `CCN(CC)CCSc1c2ccccc2nc2cc(NCC(=O)Nc3ccccc3-c3ccccc3NC(=O)CNc3ccc4c(SCCN(CC)CC)c5ccccc5nc4c3)ccc12`, the TGI is over 73.5 µM.

In turn, `Cc1ccc(S(=O)(=O)OC[C@@H]2CO2)cc1` displayed a TGI of over 100 µM.

Compound `C=C(C)C(=O)OC1C/C(CO)=C\C(O)C/C(C)=C/C2OC(=O)C(=C)C21` (stereo not drawn) returned a TGI of 58.2 µM.

Another assay has as its system SR leukemia. The assay can be described thus: inhibition of tumour cell growth, NCI panel, 48 h.
Compound `CCN(CC)CCSc1c2ccccc2nc2cc(NCC(=O)Nc3ccccc3-c3ccccc3NC(=O)CNc3ccc4c(SCCN(CC)CC)c5ccccc5nc4c3)ccc12` yielded a TGI of over 100 µM.

As to `Cc1ccc(S(=O)(=O)OC[C@@H]2CO2)cc1`, the TGI was over 100 µM.

Take `C=C(C)C(=O)OC1C/C(CO)=C\C(O)C/C(C)=C/C2OC(=O)C(=C)C21` (stereo not drawn): the TGI came to 50.5 µM.

The subject of the next assay is XF 498 CNS. The assay can be described thus: inhibition of tumour cell growth, NCI panel, 48 h.
Take `O=C(CC(=O)c1cccc2ccccc12)C(=O)Nc1ccc(Cl)cc1`: the TGI was over 100 µM.

The compound `CCN(CC)CCSc1c2ccccc2nc2cc(NCC(=O)Nc3ccccc3-c3ccccc3NC(=O)CNc3ccc4c(SCCN(CC)CC)c5ccccc5nc4c3)ccc12` yielded a TGI of over 100 µM.

In turn, `C=C(C)C(=O)OC1C/C(CO)=C\C(O)C/C(C)=C/C2OC(=O)C(=C)C21` (stereo not drawn) registered a TGI of 29.3 µM.

The subject of another assay is UO-31 renal. The assay can be described thus: inhibition of tumour cell growth, NCI panel, 48 h.
In turn, `O=C(CC(=O)c1cccc2ccccc12)C(=O)Nc1ccc(Cl)cc1` yielded a TGI of over 100 µM.

Compound `CCN(CC)CCSc1c2ccccc2nc2cc(NCC(=O)Nc3ccccc3-c3ccccc3NC(=O)CNc3ccc4c(SCCN(CC)CC)c5ccccc5nc4c3)ccc12` showed a TGI of over 100 µM.

Regarding `Cc1ccc(S(=O)(=O)OC[C@@H]2CO2)cc1`, the TGI is over 100 µM.

Take `C=C(C)C(=O)OC1C/C(CO)=C\C(O)C/C(C)=C/C2OC(=O)C(=C)C21` (stereo not drawn): the TGI is over 100 µM.

Another assay relates to UACC-62 melanoma. The assay can be described thus: inhibition of tumour cell growth, NCI panel, 48 h.
Compound `O=C(CC(=O)c1cccc2ccccc12)C(=O)Nc1ccc(Cl)cc1` yielded a TGI of over 100 µM.

In turn, `CCN(CC)CCSc1c2ccccc2nc2cc(NCC(=O)Nc3ccccc3-c3ccccc3NC(=O)CNc3ccc4c(SCCN(CC)CC)c5ccccc5nc4c3)ccc12` had a TGI of over 100 µM.

With `C=C(C)C(=O)OC1C/C(CO)=C\C(O)C/C(C)=C/C2OC(=O)C(=C)C21` (stereo not drawn), the TGI is 39.1 µM.

For a further assay, the system named is HOP-92 NSCLC. The assay can be described thus: inhibition of tumour cell growth, NCI panel, 48 h.
Compound `O=C(CC(=O)c1cccc2ccccc12)C(=O)Nc1ccc(Cl)cc1` registered a TGI of over 100 µM.

As to `CCN(CC)CCSc1c2ccccc2nc2cc(NCC(=O)Nc3ccccc3-c3ccccc3NC(=O)CNc3ccc4c(SCCN(CC)CC)c5ccccc5nc4c3)ccc12`, the TGI was over 100 µM.

The compound `Cc1ccc(S(=O)(=O)OC[C@@H]2CO2)cc1` had a TGI of over 100 µM.

In the case of `C=C(C)C(=O)OC1C/C(CO)=C\C(O)C/C(C)=C/C2OC(=O)C(=C)C21` (stereo not drawn), the TGI turned out to be 38.2 µM.

The subject of the next assay is SW-620 colon. The assay can be described thus: inhibition of tumour cell growth, NCI panel, 48 h.
Turning to `O=C(CC(=O)c1cccc2ccccc12)C(=O)Nc1ccc(Cl)cc1`, the TGI is over 100 µM.

As for `CCN(CC)CCSc1c2ccccc2nc2cc(NCC(=O)Nc3ccccc3-c3ccccc3NC(=O)CNc3ccc4c(SCCN(CC)CC)c5ccccc5nc4c3)ccc12`, the TGI was over 100 µM.

`Cc1ccc(S(=O)(=O)OC[C@@H]2CO2)cc1` registered a TGI of over 100 µM.

With `C=C(C)C(=O)OC1C/C(CO)=C\C(O)C/C(C)=C/C2OC(=O)C(=C)C21` (stereo not drawn), the TGI was 33.3 µM.

In a further assay the test system is HOP-18 NSCLC. The assay can be described thus: inhibition of tumour cell growth, NCI panel, 48 h.
In turn, `O=C(CC(=O)c1cccc2ccccc12)C(=O)Nc1ccc(Cl)cc1` displayed a TGI of over 100 µM.

Turning to `CCN(CC)CCSc1c2ccccc2nc2cc(NCC(=O)Nc3ccccc3-c3ccccc3NC(=O)CNc3ccc4c(SCCN(CC)CC)c5ccccc5nc4c3)ccc12`, the TGI is over 100 µM.

As for `Cc1ccc(S(=O)(=O)OC[C@@H]2CO2)cc1`, the TGI is over 100 µM.

`C=C(C)C(=O)OC1C/C(CO)=C\C(O)C/C(C)=C/C2OC(=O)C(=C)C21` (stereo not drawn) returned a TGI of 83.4 µM.

A further assay concerns OVCAR-5 ovarian. The assay can be described thus: inhibition of tumour cell growth, NCI panel, 48 h.
On to `O=C(CC(=O)c1cccc2ccccc12)C(=O)Nc1ccc(Cl)cc1`, for which the TGI was over 100 µM.

Take `CCN(CC)CCSc1c2ccccc2nc2cc(NCC(=O)Nc3ccccc3-c3ccccc3NC(=O)CNc3ccc4c(SCCN(CC)CC)c5ccccc5nc4c3)ccc12`: the TGI is over 100 µM.

`Cc1ccc(S(=O)(=O)OC[C@@H]2CO2)cc1` displayed a TGI of over 100 µM.

The compound `C=C(C)C(=O)OC1C/C(CO)=C\C(O)C/C(C)=C/C2OC(=O)C(=C)C21` (stereo not drawn) came in with a TGI of over 100 µM.

For a further assay, the system named is HT29 colon. The assay can be described thus: inhibition of tumour cell growth, NCI panel, 48 h.
Consider `O=C(CC(=O)c1cccc2ccccc12)C(=O)Nc1ccc(Cl)cc1`, for which the TGI is over 100 µM.

In the case of `CCN(CC)CCSc1c2ccccc2nc2cc(NCC(=O)Nc3ccccc3-c3ccccc3NC(=O)CNc3ccc4c(SCCN(CC)CC)c5ccccc5nc4c3)ccc12`, the TGI is over 100 µM.

In turn, `Cc1ccc(S(=O)(=O)OC[C@@H]2CO2)cc1` displayed a TGI of over 100 µM.

Compound `C=C(C)C(=O)OC1C/C(CO)=C\C(O)C/C(C)=C/C2OC(=O)C(=C)C21` (stereo not drawn) showed a TGI of 34.1 µM.

The test system of the next assay is SK-MEL-2 melanoma. The assay can be described thus: inhibition of tumour cell growth, NCI panel, 48 h.
Turning to `CCN(CC)CCSc1c2ccccc2nc2cc(NCC(=O)Nc3ccccc3-c3ccccc3NC(=O)CNc3ccc4c(SCCN(CC)CC)c5ccccc5nc4c3)ccc12`, the TGI is over 100 µM.

As for `Cc1ccc(S(=O)(=O)OC[C@@H]2CO2)cc1`, the TGI was over 100 µM.

Compound `C=C(C)C(=O)OC1C/C(CO)=C\C(O)C/C(C)=C/C2OC(=O)C(=C)C21` (stereo not drawn) came in with a TGI of 36.6 µM.

In a further assay the test system is NCI-H460 lung. The assay can be described thus: inhibition of tumour cell growth, NCI panel, 48 h.
Regarding `O=C(CC(=O)c1cccc2ccccc12)C(=O)Nc1ccc(Cl)cc1`, the TGI was over 100 µM.

For the compound `CCN(CC)CCSc1c2ccccc2nc2cc(NCC(=O)Nc3ccccc3-c3ccccc3NC(=O)CNc3ccc4c(SCCN(CC)CC)c5ccccc5nc4c3)ccc12`, the TGI is over 100 µM.

For the compound `Cc1ccc(S(=O)(=O)OC[C@@H]2CO2)cc1`, the TGI is over 100 µM.
